Data from patent publication US20220403001A1, “PDE5 DERIVED REGULATORY CONSTRUCTS AND METHODS OF USE IN IMMUNOTHERAPY” (Obsidian Therapeutics, Inc., priority 2018, published 2022).

Key:
[1] = molecular target: hPDE5 mutants (Homo sapiens, UniProt O76074); experiment: GFP FACS analysis of hPDE5 mutant library clones in NIH3T3 cell pools
Experimental: (§1) These constructs were packaged into lentivirus, transduced into NIH3T3 cells and select stable cell pools were derived as described below. […] Lentiviral stocks were used for transduction of NIH3T3 cells and subsequent cell pool selection. The day before transduction, NIH3T3 cells (1.8×10^6) were seeded in a T-25 flask and allowed to reach 60-70% confluency (˜1 day). The growth medium in the T-25 flask was then replaced with 1 mL virus (quickly thawed in a 37° C. water bath) and 5 μg/mL polybrene. […] Transduction medium was removed the following day and replaced with 5 mL fresh medium. At 48 hr after transduction, the medium was replaced with media containing 1 μg/mL puromycin. This puromycin medium was replaced every 3-4 days until cell pools were established (˜2 weeks).
(§2) The mean fluorescence intensity (MFI) of GFP at 100 μM concentration treatment was set as 100% hPDE5 stabilization effect (HPE), while DMSO treatment was set as 0% effect (ZPE) of hPDE5 stabilization. The effect of the compound on hPDE5 stabilization was calculated based on the following formula: % PDE5 stabilization effect=(MFI-ZPE)/(HPE-ZPE)×100.
(§3) Plots of the % effect versus concentration were generated with Graphpad Prism 5 and EC50 values were calculated using a four-parameter nonlinear regression model.
(§4) Select PDE5 clones from both experiment 1 and experiment 2 were directly compared. […] The stabilization ratio was calculated as the fold change in GFP intensity in ligand treated samples compared to treatment with DMSO (i.e. in the absence of ligand) with the same construct.

[2] = system: hPDE5 mutants; experiment: as above; conditions: experiment 1
Experimental: as §1, §2, §3, §4

With “LibC000005: hPDE5 (Amino acid 535-860 of WT, I556S, E796D), DD generated by random mutagenesis” the “MFI 10 μM VDF” value ([1]; GFP, NIH3T3 cell pools, 10 μM vardenafil 24 hr, experiment 1) was 2081, the “MFI DMSO” value ([1]; GFP, NIH3T3 cell pools, no ligand (DMSO), experiment 1) was 271 and the “GFP FACS analysis (MFI)” value ([1]; SDF 3.704 μM, experiment 1) was 518. For the same substance, the “GFP FACS analysis (MFI)” value ([1]; SDF 11.111 μM, experiment 1) was 577, the “GFP FACS analysis (MFI)” value ([1]; SDF 33.333 μM, experiment 1) was 734 and the “GFP FACS analysis (MFI)” value ([1]; SDF 100 μM, experiment 1) was 1136. For the same substance, the “GFP FACS analysis (MFI)” value ([1]; TDF 3.704 μM, experiment 1) was 453, the “GFP FACS analysis (MFI)” value ([1]; TDF 11.111 μM, experiment 1) was 551 and the “GFP FACS analysis (MFI)” value ([1]; TDF 33.333 μM, experiment 1) was 711. For the same substance, the “GFP FACS analysis (MFI)” value ([1]; TDF 100 μM, experiment 1) was 814, the “GFP FACS analysis (MFI)” value ([1]; VDF 1.235 μM, experiment 1) was 1044 and the “GFP FACS analysis (MFI)” value ([1]; VDF 3.704 μM, experiment 1) was 1968. For the same substance, the “GFP FACS analysis (MFI)” value ([1]; VDF 11.111 μM, experiment 1) was 3066, the “GFP FACS analysis (MFI)” value ([1]; VDF 33.333 μM, experiment 1) was 3892 and the “GFP FACS analysis (MFI)” value ([1]; VDF 100 μM, experiment 1) was 4240. The “Fluorescence intensity Sildenafil” value ([1]; median GFP fluorescence by FACS, 10 μM Sildenafil, direct comparison of clones) was 1136, the “Fluorescence intensity Tadalafil” value ([1]; median GFP fluorescence by FACS, 10 μM Tadalafil, direct comparison of clones) was 814 and the “Fluorescence intensity Vardenafil” value ([1]; median GFP fluorescence by FACS, 10 μM Vardenafil, direct comparison of clones) was 4240. The “Fluorescence intensity DMSO” value ([1]; median GFP fluorescence by FACS, vehicle DMSO (no ligand), direct comparison of clones) was 359, the “GFP FACS analysis (MFI)” value ([2]; DMSO (no ligand), SDF series) was 335 and the “GFP FACS analysis (MFI)” value ([2]; DMSO (no ligand), TDF series) was 366. For the same substance, the “GFP FACS analysis (MFI)” value ([2]; DMSO (no ligand), VDF series) was 376, the “GFP FACS analysis (MFI)” value ([2]; SDF 1.235 μM) was 479 and the Percent stabilization effect ([2]; SDF 1.235 μM) was 18.0%. It also gave a Percent stabilization effect ([2]; SDF 3.704 μM) of 22.8%, a Percent stabilization effect ([2]; SDF 11.111 μM) of 30.2% and a Percent stabilization effect ([2]; SDF 33.333 μM) of 49.8%. The Percent stabilization effect ([2]; SDF 100 μM (set as 100%)) was 100.0%, the “GFP FACS analysis (MFI)” value ([2]; TDF 1.235 μM) was 418 and the Percent stabilization effect ([2]; TDF 1.235 μM) was 11.6%. It also gave a Percent stabilization effect ([2]; TDF 3.704 μM) of 19.4%, a Percent stabilization effect ([2]; TDF 11.111 μM) of 41.3% and a Percent stabilization effect ([2]; TDF 33.333 μM) of 77.0%. The Percent stabilization effect ([2]; TDF 100 μM (set as 100%)) was 100.0%, the Percent stabilization effect ([2]; VDF 1.235 μM) was 17.3% and the Percent stabilization effect ([2]; VDF 3.704 μM) was 41.2%. For the same substance, the Percent stabilization effect ([2]; VDF 11.111 μM) was 69.6%, the Percent stabilization effect ([2]; VDF 33.333 μM) was 91.0% and the Percent stabilization effect ([2]; VDF 100 μM (set as 100%)) was 100.0%.
